A short description of this series: Dry powder particle sizing using a Malvern Mastersizer. Type of series: physicochemical. The text has this:
The following materials were used in the examples: mannitol (Spectrum Chemicals, New Brunswick, N.J., unless otherwise indicated), TWEENTM 80 (Spectrum Chemicals, New Brunswick, N.J.), celecoxib (Onbio, Ontario, Canada), Plasdone-C 15 (International Specialty Products, Wayne, N.Y.), budesonide (Byron Chemical Company, Long Island, N.Y.), dipalmitoyl phosphatidylcholine (DPPC) (Chemi S.p.a., Milan, Italy, unless otherwise indicated), PLGA (Boehringer Ingelheim Fine Chemicals, Ingelheim, Germany), ammonium bicarbonate (Spectrum Chemicals, Gardenia, Calif.), methylene chloride (EM Science, Gibbstown, N.J.), Fluticasone propionate ([…]., Mumbai, India), and lactose (Pharmatose […], DMV International, The Netherlands). The TWEENTM 80 is hereinafter referred to as “Tween80.” The volume average diameter of lactose (Pharmatose […]) was determined to be approximately 68 μm by dry powder particle sizing using a Malvern Mastersizer (Malvern Instruments Ltd., United Kingdom).

This is an account of results in patent US20070178166A1, “PROCESSES FOR MAKING PARTICLE-BASED PHARMACEUTICAL FORMULATIONS FOR PULMONARY OR NASAL ADMINISTRATION” (priority 2005, published 2007).

Structures are written as SMILES.

Take `OC[C@H]1O[C@@H](O[C@H]2[C@H](O)[C@@H](O)C(O)O[C@@H]2CO)[C@H](O)[C@@H](O)[C@H]1O` (stereo partly shown) [lactose (Pharmatose 325M), lactose]: the volume average diameter entry is “approximately 68 μm”.
